Laboratory results taken from PMC11820055, “Human Pharmacokinetic Profiling and Comparative Analysis of Mangiferin and Its Monosodium Derivative from Mangifera indica Extracts Using UHPLC-MS/MS with ^1H NMR and MALDI-TOF Confirmation” (Molecules, 2025).
In brackets after ≈: the same amount, converted by molar mass. Where a name gives a salt, the structure may show the parent alone. Read-outs that look alike come from different tables or passages of the source.

Columns and labels:
[1] = set-up: method as in earlier work; conditions: pure mangiferin; cited from earlier work
[2] = cited from earlier work
[3] = Stability of mangiferin in human plasma QC samples; type: in vitro ADME; conditions: for Stability (%, Mean ± RSD) Autosampler / Stability (%, Mean ± RSD) Room Temp. / Stability (%, Mean ± RSD) Freeze–Thaw: human plasma QC, n = 6; for Stability (%, Mean ± RSD) Autosampler: autosampler 4 h at 12 °C; for Stability (%, Mean ± RSD) Room Temp.: room temperature for 4 h; for Stability (%, Mean ± RSD) Freeze–Thaw: three cycles of freezing (−80 °C) and thawing (20 °C)
Procedure: Quality control (QC) samples were prepared in the same manner and evaluated at low, medium, and high concentrations: 50, 500, and 1000 ng/mL. Blank plasma samples were also included in the injection series to account for any potential carryover. The stability of mangiferin in human plasma was evaluated by analyzing the same three levels of QC samples (n = 6) after storage at room temperature for 4 h, in the autosampler for 4 h at 12 °C, and after three cycles of freezing (−80 °C) and thawing (20 °C).

[4] = set-up: method as in PMID 26434292; conditions: human plasma, mangiferin >90% purity, cited from earlier work
[5] = test system: rats; conditions: dose of 400 mg of the purified salt; cited from earlier work
[6] = set-up: method as in doi:10.1155/2019/9272710; conditions: male Sprague Dawley rats; cited from earlier work
[7] = test system: mice; conditions: cited from earlier work

O=c1c2cc(O)c(O)cc2oc2cc(O)c([C@@H]3O[C@H](CO)[C@@H](O)[C@H](O)[C@H]3O)c(O)c12 [Mangiferin]
aqueous solubility [1]: 111 µg/mL (≈ 263 µM)
increase of exposure on inhibition of the transporter P-gp ([2]; pure mangiferin): approximately threefold
stability throughout the analytical process ([3]; human plasma QC samples): stable
Stability (%, Mean ± RSD) Autosampler ([3]; 1.000 ng/mL as printed): 101.63 ± 8.50%
Stability (%, Mean ± RSD) Room Temp. ([3]; 1.000 ng/mL as printed): 101.75 ± 8.11%
Stability (%, Mean ± RSD) Freeze–Thaw ([3]; 1.000 ng/mL as printed): 102.64 ± 1.05%
Stability (%, Mean ± RSD) Autosampler ([3]; 50 ng/mL): 109.92 ± 2.77%
Stability (%, Mean ± RSD) Room Temp. ([3]; 50 ng/mL): 103.10 ± 3.66%
Stability (%, Mean ± RSD) Freeze–Thaw ([3]; 50 ng/mL): 108.60 ± 3.87%
Stability (%, Mean ± RSD) Autosampler ([3]; 500 ng/mL): 102.02 ± 8.81%
Stability (%, Mean ± RSD) Room Temp. ([3]; 500 ng/mL): 101.27 ± 9.08%
Stability (%, Mean ± RSD) Freeze–Thaw ([3]; 500 ng/mL): 101.68 ± 0.91%
Cmax ([4]; 100 mg oral dose): 19.94 ng/mL
Cmax ([4]; 900 mg oral dose): 38.64 ng/mL

O=c1c2cc(O)c(O)cc2oc2cc(O)c([C@@H]3O[C@H](CO)[C@@H](O)[C@H](O)[C@H]3O)c(O)c12 [mangiferin monosodium salt, Monosodium mangiferin]
safety in rats [5]: generally safe
relative bioavailability of the salt vs pure mangiferin based on AUC0–∞ [6]: 5.7 times
maximum tolerated dose (MTD) [7]: 12,000 mg/kg

O=c1c2cc(O)c(O)cc2oc2cc(O)cc(O)c12 [norathyriol]
Tmax ([2]; in vivo): ~15 h
absorption of norathyriol as fraction of the mangiferin dose ([2]; in vivo): approximately 0.1%
